Literature values in US11859018B2, “Peptoid-based chelating ligands for selective metal chelation” (TRIAD National Security, LLC., priority 2018, dated 2024).

O=C(N[C@H]1COC(=O)[C@@H](NC(=O)c2cccc(O)c2O)COC(=O)[C@@H](NC(=O)c2cccc(O)c2O)COC1=O)c1cccc(O)c1O [enterobactin]
stability constant for the Fe(III) complex, Log(Kβ): 49
